From ChEMBL document CHEMBL1127183, “Synthesis of 6-amino-5-oxo-7-phenyl-1,4-oxazepines as conformationally constrained gauche () dipeptide mimetics” (Bioorg Med Chem Lett, 1993)

Biological target: Angiotensin-converting enzyme (Homo sapiens, UniProt P12821)
Assay: Binding affinity against Angiotensin I converting enzyme

Angiotensin-converting enzyme, sequence (P12821 whole entry): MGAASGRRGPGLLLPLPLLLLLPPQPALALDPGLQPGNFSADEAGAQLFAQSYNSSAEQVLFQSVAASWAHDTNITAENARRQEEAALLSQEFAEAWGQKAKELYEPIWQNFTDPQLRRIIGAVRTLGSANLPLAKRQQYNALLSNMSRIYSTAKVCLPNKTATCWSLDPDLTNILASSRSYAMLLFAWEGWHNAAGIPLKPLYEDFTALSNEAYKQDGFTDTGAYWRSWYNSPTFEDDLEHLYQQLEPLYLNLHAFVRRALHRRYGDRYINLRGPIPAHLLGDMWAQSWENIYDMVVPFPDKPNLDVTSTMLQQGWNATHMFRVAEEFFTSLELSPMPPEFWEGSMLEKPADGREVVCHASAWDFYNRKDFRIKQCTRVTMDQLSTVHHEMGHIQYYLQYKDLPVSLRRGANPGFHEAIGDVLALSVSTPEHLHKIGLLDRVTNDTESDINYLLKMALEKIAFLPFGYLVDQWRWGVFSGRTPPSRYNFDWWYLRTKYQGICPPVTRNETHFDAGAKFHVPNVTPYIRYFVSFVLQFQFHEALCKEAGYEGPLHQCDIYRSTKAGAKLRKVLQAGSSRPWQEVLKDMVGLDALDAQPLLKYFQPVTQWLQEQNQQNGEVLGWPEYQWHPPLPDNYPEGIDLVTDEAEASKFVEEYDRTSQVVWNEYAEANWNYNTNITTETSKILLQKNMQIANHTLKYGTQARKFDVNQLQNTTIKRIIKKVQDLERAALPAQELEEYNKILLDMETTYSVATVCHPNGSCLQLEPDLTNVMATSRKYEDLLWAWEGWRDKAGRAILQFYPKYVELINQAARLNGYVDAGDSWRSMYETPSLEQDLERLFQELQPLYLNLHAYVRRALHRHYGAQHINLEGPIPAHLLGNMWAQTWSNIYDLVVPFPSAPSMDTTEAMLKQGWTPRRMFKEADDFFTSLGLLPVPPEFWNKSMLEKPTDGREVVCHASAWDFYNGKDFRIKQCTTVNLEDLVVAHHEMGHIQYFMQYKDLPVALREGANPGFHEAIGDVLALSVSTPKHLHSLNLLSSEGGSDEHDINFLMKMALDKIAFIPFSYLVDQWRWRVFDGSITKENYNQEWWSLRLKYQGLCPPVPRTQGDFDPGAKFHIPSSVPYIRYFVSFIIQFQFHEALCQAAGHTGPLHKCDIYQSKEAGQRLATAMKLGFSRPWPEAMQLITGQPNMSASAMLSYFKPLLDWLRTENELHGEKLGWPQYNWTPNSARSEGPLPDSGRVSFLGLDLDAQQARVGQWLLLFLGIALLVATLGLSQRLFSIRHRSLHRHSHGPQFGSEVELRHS

Work on `CC(C)C[C@H](C(=O)O)N1CCO[C@@H](c2ccccc2)[C@H](NC(=O)[C@H](S)Cc2ccccc2)C1=O` yielded a Ki of 50 µM.
